Results as given in patent US20230364069A1, “METHOD FOR TREATING NON-ALCOHOLIC STEATOHEPATITIS THROUGH CO-ADMINISTRATION OF CURCUMIN DERIVATIVE AND TGF-B RECEPTOR INHIBITOR” (UNIVERSITY INDUSTRY FOUNDATION, YONSEI UNIVERSITY WONJU …, priority 2021, published 2023).

Legend:
[1] = system: C57BL/6 mice in which steatohepatitis was induced with a methionine-choline deficient diet; assay: Steatohepatitis animal model (MCD), curcumin 5-8 and high-concentration EW-7197 (40 mg/kg); assay type: in vivo, mouse; conditions: for fat accumulation in the liver tissues / fibrosis of liver tissues: MCD-fed mice, EW-7197 40 mg/kg, Western blotting, FIGS. 19 to 24; for fat accumulation in the liver tissues: H&E; for fibrosis of liver tissues: Picrosirius red, Masson's trichrome
Description: 8-week-old male C57BL/6 mice weighing 20 to 25 g were purchased from Dae Han Bio Link Co., Ltd. (Chungbuk). Mice were acclimatized for one week under room temperature (25° C.±2° C.) in 60%±5% humidity and a 12-hour light/dark cycle. Mice were fed with a normal diet (Research Diets, RD) and allowed to drink water freely. Afterwards, the mice were randomly divided into five groups according to the fed diets or administered drugs, and the five groups were a group which was fed with a normal diet (Con), a group which was fed with a methionine-choline deficient diet (MCD), a group which was fed with a mixture of an MCD and curcumin 5-8 (1 g of curcumin 5-8 per 1 kg of the diet) (MCD+Cur5-8), a group which was fed with an MCD and to which EW-7197 was orally administered (MCD+EW), and a group which was fed with a mixture of an MCD and curcumin 5-8 and to which EW-7197 was orally administered together (MCD+EW+Cur5-8) (n=10).
EW-7197 was administered directly to the stomach by an oral administration method once every two days at 40 mg/kg. Body weights were measured every week during the experiment period, and liver tissues were harvested after 6 weeks and stored at −80° C. All experiments were performed with the approval of the Institutional Animal Care and Use Committee at Wonju College of Medicine of Yonsei University (YWC-200907-1).
In order to confirm the physiological changes in case of co-administration of a curcumin derivative (Cur5-8) and a TGF-β receptor inhibitor (EW-7197), the liver weights and the concentrations of TG, TC, AST, ALT, and γ-GT in serum were measured. In addition, hydroxyprolin expression was checked as a fibrosis marker in the liver tissues.
Specifically, the weights of the liver tissues harvested in Examples 2-1 and 2-2 were measured before storage.
In Examples 2-1 and 2-2, blood was collected after the experiment was completed, and concentrations of TG, TC, AST, ALT, and γ-GT in serum were measured. In order to measure blood glucose, triglyceride, cholesterol, and AST and ALT concentrations, ELISA kit of Asan Pharm. Co., Ltd. was purchased, and the measuring was performed. γ-GT in the liver was measured by using Mak089 of Sigma-Aldrich, and hydroxyproline was measured by using STA-675 ELISA kit of Cell Biolabs, Inc.
In addition, the hydroxyprolin expression was checked in the liver tissues harvested in Examples 2-1 and 2-2.
In order to check effects of inhibiting fat accumulation in liver tissues and fibrosis in liver tissues in case of co-administration of a curcumin derivative (Cur5-8) and a TGF-β receptor inhibitor (EW-7197), the liver tissues were stained.
The liver tissues harvested in Examples 2-1 and 2-2 were fixed with 10% formaldehyde, the formaldehyde was washed out with running water for more than 12 hours, and then washing was performed with 60% ethanol at a one-hour interval, with 70% ethanol at a one-hour interval, and with 100% ethanol at a one-hour interval. Then, the transparency process in xylene was performed three times for one hour each, and the infiltration process in paraffin was performed twice for one hour each. Then, the paraffin block was cut to a thickness of about […] to obtain slices. After deparaffinization, the slices were stained with hematoxylin and eosin (H&E staining), and blood vessels and lipid droplets in the liver tissues were checked. […]
In addition, H&E-stained liver slices were evaluated by using the NAFLD activity score (NAS) system. […]

[2] = system: mouse hepatocyte cell lines (AML12); assay: TGF-β-induced fibrosis, co-administration of curcumin derivative and EW-7197 (epithelial-mesenchymal conversion, BODIPY, α-SMA staining, Western blotting); assay type: cell-based; conditions: 2 ng/ml TGF-β, 24 hours, 1 μM Cur or Cur5-8, 10 μM EW-7197; for epithelial-mesenchymal conversion caused by TGF-β: FIG. 8; for liver fibrosis (α-SMA staining, fibrosis marker Western blotting): FIGS. 8, 10, 11
Description: Fibrosis was induced in hepatocytes with TGF-β, a curcumin derivative and a TGF-β receptor inhibitor were co-administered, and then fibrosis and fat synthesis and degradation were checked.
Specifically, 2 ng/ml of TGF-β was administered to the cells of Example 1-1, the cells were divided into administration groups of vehicle (Veh), 1 μM curcumin (Cur), 1 μM curcumin 5-8 (Cur5-8), 0.5 μM EW-7197 (EW0.5), 10 μM EW-7197 (EW or EW10), 1 μM curcumin and 0.5 μM EW-7197 (EW0.5+Cur), 1 μM curcumin and 10 μM EW-7197 (EW+Cur or EW10+Cur), 1 μM curcumin 5-8 and 0.5 μM EW-7197 (EW0.5+Cur5-8), 1 μM curcumin 5-8 and 10 μM EW-7197 (EW+Cur5-8 or EW10+Cur5-8), respective samples were administered, and culturing was performed for 24 hours. The control group (Con) was not treated with either TGF-β or the sample. […] After washing with PBS 1×, stained cells were observed.
In addition, in order to check the degree of fibrosis of hepatocytes, the cells cultured for 24 hours were fixed with 4% paraformaldehyde and then stained by using α-SMA (Santa Cruz Biotechnology, Inc., Dallas, Texas, USA), an Alexafluor 488 (Cell Signaling Technology, Danvers, Massachusetts, USA) antibody, and DAPI (Abcam plc., Cambridge, MA, USA). The cells were mounted with a mounting solution (Fisher Scientific, Hampton, Rockingham, USA), the manufactured sample was photographed using a confocal microscope to obtain photographs of stained cells, and the degree of color development in the photographs of the stained cells was analyzed with the ImageJ program.
In addition, in order to confirm the degree of fibrosis of hepatocytes, the cells cultured for 24 hours were collected, and protein expressions of α-SMA, Collagen I (Coll), p-SMAD2, and p-SMAD3 were checked by Western blotting with fibrosis markers in the same method as described in <Example 1-3>.
In order to check a synergistic effect of inhibiting fibrosis caused by a TGF-β and inhibiting fat accumulation caused thereby in case of co-administration of a curcumin derivative (Cur5-8) and a TGF-β receptor inhibitor (EW-7197), epithelial-mesenchymal conversion of hepatocytes was confirmed through a cell experiment by the method described in Example 1-5, and BODIPY staining and α-SMA staining were performed. Also, protein expressions of α-SMA, Collagen I p-SMAD2, and p-SMAD3 were checked by Western blotting.

Compound	AST (aspartate transaminase) ([1]; MCD-fed C57BL/6 mice, 6 weeks, EW-7197 40 mg/kg oral once every two days, curcumin 5-8 1 g per 1 kg diet)	fat accumulation in the liver tissues [1]	fibrosis of liver tissues [1]	epithelial-mesenchymal conversion caused by TGF-β [2]	liver fibrosis (α-SMA staining, fibrosis marker Western blotting) [2]	fat accumulation / adipogenesis in cells (BODIPY staining) ([2]; FIGS. 8, 9)
COc1cc(/C=C/C(=O)c2cccc(NC(=O)C(C)C)c2)ccc1O [Cur5-8, N-{3-[(2E)-3-(4-hydroxy-3-methoxyphenyl)prop-2-enoyl]phenyl}-2-methylpropanamide]	119.9 ± 3.80 IU/L	reduced	not improved	not inhibited	liver fibrosis was induced	–
Cc1cccc(-c2[nH]c(CNc3ccccc3F)nc2-c2ccc3ncnn3c2)n1 [EW-7197, N-(2-fluorophenyl)-5-(6-methyl-2-pyridinyl)-4-[1,2,4]triazolo[1,5-a]pyridin-6-yl-1H-imidazole-2-methanamine]	–	not inhibited	inhibited	inhibited	inhibited	fat accumulation in cells was exhibited
